# Residues, ends and D or L forms follow the SMILES beside them.
# Columns and labels:
# Test in all cases: In-house protein microarrays (with or without 5 mM DTT), protein named per line
# Assay type in all cases: binding
# SH2 and PTB domains [1] = target: T1, SH2 and PTB domains (Homo sapiens, UniProt P42684); details: protein ABL2
# T1 construct: thioredoxin; made in house; host or cells: BL21(DE3)pLysS E. coli
# Summary of the method: (§1)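 Recombinant domains (~40 µM) spotted in duplicate on aldehyde slides, quenched 1 h at room temperature in HEPES/KCl/Tween-20 buffer pH 7.8 with 5 mM DTT and 1% BSA, then probed with rhodamine-labeled peptide. Thioredoxin-subtracted mean fluorescence fitted for KD.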
# SH2 and PTB domains [2] = target: T2, SH2 and PTB domains (Homo sapiens, UniProt P52735); details: protein VAV2
# T2 construct: thioredoxin; made in house; host or cells: BL21(DE3)pLysS E. coli
# T2 sequence (P52735 1-878): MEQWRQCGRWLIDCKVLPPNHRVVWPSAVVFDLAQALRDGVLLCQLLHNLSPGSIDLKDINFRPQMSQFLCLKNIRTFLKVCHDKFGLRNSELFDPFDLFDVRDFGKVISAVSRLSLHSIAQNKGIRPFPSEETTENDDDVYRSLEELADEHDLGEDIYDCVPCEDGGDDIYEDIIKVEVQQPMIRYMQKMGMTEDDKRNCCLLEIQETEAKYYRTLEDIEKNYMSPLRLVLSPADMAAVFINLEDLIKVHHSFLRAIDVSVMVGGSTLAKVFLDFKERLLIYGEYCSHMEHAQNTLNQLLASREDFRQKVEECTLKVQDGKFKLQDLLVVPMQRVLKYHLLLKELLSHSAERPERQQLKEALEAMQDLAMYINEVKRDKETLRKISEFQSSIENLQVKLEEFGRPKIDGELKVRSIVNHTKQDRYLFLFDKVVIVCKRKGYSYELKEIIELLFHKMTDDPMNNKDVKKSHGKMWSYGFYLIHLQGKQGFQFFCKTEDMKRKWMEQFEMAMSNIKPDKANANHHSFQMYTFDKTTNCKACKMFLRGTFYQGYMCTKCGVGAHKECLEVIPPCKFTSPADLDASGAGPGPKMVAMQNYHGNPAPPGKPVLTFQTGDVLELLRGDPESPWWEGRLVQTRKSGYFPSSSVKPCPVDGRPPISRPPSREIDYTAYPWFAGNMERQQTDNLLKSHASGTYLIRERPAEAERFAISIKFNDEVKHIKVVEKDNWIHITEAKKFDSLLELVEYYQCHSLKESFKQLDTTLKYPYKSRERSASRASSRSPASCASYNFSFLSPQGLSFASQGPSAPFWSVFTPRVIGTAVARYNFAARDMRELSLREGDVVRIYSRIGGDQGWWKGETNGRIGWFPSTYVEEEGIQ
# Summary of the method: as §1
# SH2 and PTB domains [3] = target: T3, SH2 and PTB domains (Homo sapiens, UniProt Q7M4L6); details: protein SHF
# T3 construct: thioredoxin; made in house; host or cells: BL21(DE3)pLysS E. coli
# T3 sequence (Q7M4L6 whole entry, the tested form may be a part): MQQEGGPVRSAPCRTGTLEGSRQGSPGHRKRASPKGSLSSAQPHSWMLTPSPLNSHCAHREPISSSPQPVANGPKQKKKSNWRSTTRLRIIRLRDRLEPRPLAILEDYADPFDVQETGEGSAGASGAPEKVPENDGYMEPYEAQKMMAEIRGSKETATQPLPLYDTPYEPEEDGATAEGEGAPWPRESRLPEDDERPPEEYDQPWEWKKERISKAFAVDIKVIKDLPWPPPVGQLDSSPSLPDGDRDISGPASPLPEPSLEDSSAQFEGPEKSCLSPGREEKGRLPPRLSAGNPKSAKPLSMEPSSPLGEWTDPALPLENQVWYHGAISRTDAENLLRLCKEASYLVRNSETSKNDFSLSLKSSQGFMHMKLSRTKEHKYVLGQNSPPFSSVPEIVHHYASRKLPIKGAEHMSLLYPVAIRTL
# Summary of the method: as §1
# SH2 and PTB domains [4] = target: T4, SH2 and PTB domains (Homo sapiens, UniProt P08631); details: protein HCK
# T4 construct: thioredoxin; made in house; host or cells: BL21(DE3)pLysS E. coli
# T4 sequence (P08631 whole entry, the tested form may be a part): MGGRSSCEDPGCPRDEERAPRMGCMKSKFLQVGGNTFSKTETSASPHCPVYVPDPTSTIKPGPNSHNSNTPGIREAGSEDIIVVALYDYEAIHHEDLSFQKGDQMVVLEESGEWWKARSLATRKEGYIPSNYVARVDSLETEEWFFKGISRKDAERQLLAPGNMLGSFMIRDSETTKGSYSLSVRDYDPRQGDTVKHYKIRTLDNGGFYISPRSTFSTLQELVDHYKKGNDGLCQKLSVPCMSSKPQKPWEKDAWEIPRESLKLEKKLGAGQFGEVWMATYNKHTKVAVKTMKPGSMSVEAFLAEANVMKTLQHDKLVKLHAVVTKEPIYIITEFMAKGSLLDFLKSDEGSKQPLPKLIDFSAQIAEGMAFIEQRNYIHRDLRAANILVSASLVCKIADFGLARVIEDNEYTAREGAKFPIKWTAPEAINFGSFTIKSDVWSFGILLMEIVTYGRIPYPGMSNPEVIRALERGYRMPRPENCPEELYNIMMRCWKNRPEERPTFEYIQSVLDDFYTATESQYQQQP
# Summary of the method: as §1
# SH2 and PTB domains [5] = target: T5, SH2 and PTB domains (Homo sapiens, UniProt P29350)
# T5 construct: thioredoxin; made in house; host or cells: BL21(DE3)pLysS E. coli
# T5 sequence (P29350 whole entry, the tested form may be a part): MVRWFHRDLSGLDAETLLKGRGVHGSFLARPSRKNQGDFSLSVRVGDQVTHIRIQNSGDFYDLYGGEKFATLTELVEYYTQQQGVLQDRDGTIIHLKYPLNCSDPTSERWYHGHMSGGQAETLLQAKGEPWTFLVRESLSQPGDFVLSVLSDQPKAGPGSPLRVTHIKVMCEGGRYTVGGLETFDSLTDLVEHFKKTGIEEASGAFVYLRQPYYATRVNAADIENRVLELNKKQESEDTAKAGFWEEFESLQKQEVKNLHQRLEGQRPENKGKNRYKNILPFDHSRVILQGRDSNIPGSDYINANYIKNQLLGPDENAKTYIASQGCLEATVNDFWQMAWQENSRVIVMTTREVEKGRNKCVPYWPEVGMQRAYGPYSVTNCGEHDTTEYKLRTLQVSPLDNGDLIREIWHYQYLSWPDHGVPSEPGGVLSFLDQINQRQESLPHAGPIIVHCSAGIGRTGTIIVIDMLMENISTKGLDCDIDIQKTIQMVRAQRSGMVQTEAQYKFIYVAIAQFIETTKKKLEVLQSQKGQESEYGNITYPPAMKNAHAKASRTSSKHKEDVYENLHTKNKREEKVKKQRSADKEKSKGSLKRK
# Summary of the method: as §1
# SH2 and PTB domains [6] = target: T6, SH2 and PTB domains (Homo sapiens, UniProt P00519); details: protein ABL1
# T6 construct: thioredoxin; made in house; host or cells: BL21(DE3)pLysS E. coli
# T6 sequence (P00519 whole entry, the tested form may be a part): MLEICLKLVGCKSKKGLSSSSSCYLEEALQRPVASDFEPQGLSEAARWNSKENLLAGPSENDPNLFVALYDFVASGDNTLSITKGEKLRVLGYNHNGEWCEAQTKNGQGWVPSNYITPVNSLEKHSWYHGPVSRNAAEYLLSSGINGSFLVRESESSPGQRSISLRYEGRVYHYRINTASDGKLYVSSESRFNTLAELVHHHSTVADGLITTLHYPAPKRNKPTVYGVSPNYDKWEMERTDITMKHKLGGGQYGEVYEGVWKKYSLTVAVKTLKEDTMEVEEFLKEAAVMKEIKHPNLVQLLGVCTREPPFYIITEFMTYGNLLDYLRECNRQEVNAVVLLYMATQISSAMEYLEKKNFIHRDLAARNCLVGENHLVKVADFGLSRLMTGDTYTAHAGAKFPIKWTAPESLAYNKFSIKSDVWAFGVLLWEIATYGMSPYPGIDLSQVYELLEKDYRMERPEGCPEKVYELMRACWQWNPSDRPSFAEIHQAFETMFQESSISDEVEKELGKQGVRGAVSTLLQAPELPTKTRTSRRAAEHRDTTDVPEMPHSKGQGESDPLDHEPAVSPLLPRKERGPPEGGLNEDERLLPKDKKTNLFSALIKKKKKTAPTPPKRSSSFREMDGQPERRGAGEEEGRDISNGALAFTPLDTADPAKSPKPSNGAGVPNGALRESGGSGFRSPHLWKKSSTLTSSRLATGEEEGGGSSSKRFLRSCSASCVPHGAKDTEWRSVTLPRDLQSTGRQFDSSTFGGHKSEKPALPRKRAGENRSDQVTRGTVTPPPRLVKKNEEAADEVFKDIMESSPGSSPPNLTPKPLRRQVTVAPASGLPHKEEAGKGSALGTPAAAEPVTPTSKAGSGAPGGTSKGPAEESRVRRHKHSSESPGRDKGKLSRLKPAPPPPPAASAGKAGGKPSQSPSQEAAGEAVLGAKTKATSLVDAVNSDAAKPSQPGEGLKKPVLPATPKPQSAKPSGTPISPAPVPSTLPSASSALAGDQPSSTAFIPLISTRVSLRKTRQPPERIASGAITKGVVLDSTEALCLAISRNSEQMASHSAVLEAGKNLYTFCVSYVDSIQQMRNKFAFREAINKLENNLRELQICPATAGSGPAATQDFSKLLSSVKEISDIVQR
# Summary of the method: as §1
# SH2 and PTB domains [7] = target: T7, SH2 and PTB domains (Homo sapiens, UniProt P42680); details: protein TEC
# T7 construct: thioredoxin; made in house; host or cells: BL21(DE3)pLysS E. coli
# T7 sequence (P42680 1-631): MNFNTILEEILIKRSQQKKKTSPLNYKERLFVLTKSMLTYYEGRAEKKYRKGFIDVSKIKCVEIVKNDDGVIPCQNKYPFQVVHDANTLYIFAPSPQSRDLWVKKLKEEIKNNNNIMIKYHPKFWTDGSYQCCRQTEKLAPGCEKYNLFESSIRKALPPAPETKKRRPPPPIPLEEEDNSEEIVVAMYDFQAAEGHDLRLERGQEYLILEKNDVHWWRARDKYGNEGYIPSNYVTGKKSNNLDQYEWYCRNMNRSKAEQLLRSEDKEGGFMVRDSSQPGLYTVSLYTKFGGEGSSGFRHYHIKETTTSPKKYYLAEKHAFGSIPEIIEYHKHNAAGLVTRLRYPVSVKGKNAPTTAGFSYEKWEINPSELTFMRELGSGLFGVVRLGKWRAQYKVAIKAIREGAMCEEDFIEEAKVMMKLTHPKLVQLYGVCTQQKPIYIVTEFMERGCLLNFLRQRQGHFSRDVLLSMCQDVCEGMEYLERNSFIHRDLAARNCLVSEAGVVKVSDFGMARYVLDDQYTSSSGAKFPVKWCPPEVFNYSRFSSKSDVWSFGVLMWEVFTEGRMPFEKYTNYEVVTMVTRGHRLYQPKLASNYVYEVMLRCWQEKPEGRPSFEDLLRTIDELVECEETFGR
# Summary of the method: as §1
# [8] = PM assay replicate # 39307, array fabrication # 39286
# [9] = PM assay replicate # 39337, array fabrication # 39329
# [10] = PM assay replicate # 39336, array fabrication # 39329
# T1 sequence (P42684 whole entry, the tested form may be a part): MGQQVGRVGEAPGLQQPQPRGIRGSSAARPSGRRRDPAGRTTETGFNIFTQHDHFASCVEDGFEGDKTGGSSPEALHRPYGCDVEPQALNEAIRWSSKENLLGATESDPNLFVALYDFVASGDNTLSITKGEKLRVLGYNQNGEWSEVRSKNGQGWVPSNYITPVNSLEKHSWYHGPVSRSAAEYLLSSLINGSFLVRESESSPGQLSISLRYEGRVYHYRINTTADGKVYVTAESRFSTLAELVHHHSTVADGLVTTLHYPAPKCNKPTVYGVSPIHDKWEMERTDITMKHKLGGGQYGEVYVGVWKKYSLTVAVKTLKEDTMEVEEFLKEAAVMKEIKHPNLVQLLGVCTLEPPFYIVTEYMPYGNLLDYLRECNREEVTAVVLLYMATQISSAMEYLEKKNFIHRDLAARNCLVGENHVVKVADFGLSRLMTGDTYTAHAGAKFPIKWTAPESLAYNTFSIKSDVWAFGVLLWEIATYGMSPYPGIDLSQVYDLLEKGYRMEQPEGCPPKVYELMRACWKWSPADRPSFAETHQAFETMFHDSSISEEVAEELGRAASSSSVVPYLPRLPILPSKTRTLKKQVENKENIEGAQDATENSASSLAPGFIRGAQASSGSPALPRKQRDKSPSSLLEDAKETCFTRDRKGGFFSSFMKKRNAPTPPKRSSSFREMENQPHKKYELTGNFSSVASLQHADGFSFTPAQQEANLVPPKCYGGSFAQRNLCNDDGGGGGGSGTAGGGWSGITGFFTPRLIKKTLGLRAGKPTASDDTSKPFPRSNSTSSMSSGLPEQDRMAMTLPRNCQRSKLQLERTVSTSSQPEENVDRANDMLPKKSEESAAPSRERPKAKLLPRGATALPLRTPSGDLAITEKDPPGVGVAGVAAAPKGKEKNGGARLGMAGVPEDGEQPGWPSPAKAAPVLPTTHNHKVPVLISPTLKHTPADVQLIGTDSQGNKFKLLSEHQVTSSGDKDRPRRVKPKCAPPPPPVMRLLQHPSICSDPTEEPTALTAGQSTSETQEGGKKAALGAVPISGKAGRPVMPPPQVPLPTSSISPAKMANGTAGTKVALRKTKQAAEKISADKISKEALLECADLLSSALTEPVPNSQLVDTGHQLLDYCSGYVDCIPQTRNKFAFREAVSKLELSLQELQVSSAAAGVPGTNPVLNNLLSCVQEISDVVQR
compound,measurement,setting,value
CCN(CC)c1ccc2c(-c3ccc(C(=O)N[C@@H](CC(N)=O)C(=O)NCC(=O)N4CCC[C@H]4C(=O)N4CCC[C@H]4C(=O)N[C@@H](CCCCN)C(=O)N[C@@H](C)C(=O)N[C@@H](CCC(=O)O)C(=O)N[C@@H](CC(=O)O)C(=O)N[C@@H](CCC(=O)O)C(=O)N[C@@H](Cc4ccc(OP(=O)(O)O)cc4)C(=O)N[C@H](C(=O)N[C@@H](CC(N)=O)C(=O)N[C@@H](CCC(=O)O)C(=O)N4CCC[C@H]4C(=O)N[C@@H](CC(C)C)C(=O)N[C@@H](Cc4ccc(O)cc4)C(=O)N[C@@H](CC(C)C)C(=O)N[C@@H](CC(=O)O)C(=O)O)C(C)C)cc3C(=O)[O-])c3ccc(=[N+](CC)CC)cc-3oc2c1 [ErbB4 1202 (18-mer)] (HELM PEPTIDE1{[CCN(CC)c1ccc2c(-c3ccc(C(=O)[*:2])cc3C(=O)[O-])c3ccc(=[N+](CC)CC)cc-3oc2c1].N.G.P.P.K.A.E.D.E.[O=C([C@H](Cc1ccc(OP(=O)(O)O)cc1)N[*:1])[*:2]].V.N.E.P.L.Y.L.D}$$$$V2.0),Kd,SH2 and PTB domains [1]; [8],1000 nM
same,Kd,SH2 and PTB domains [1]; [9],970 nM
same,Kd,SH2 and PTB domains [2]; [8],9500 nM
same,Kd,SH2 and PTB domains [3]; [9],11920 nM
CC[C@H](C)[C@H](NC(=O)[C@H](CC(N)=O)NC(=O)[C@H](CC(N)=O)NC(=O)[C@H](CCCCN)NC(=O)[C@H](CC(C)C)NC(=O)[C@H](Cc1ccc(OP(=O)(O)O)cc1)NC(=O)[C@H](CCC(=O)O)NC(=O)[C@H](C)NC(=O)[C@H](CCCCN)NC(=O)CNC(=O)[C@H](CC(C)C)NC(=O)[C@@H](NC(=O)[C@H](CC(N)=O)NC(=O)[C@H](C)NC(=O)[C@@H](N)Cc1ccccc1)[C@@H](C)O)C(=O)N[C@@H](CC(C)C)C(=O)N[C@@H](CO)C(=O)N[C@@H](CC(=O)O)C(=O)O [ErbB4 pY1221 (18-mer)] (HELM PEPTIDE1{F.A.N.T.L.G.K.A.E.[O=C([C@H](Cc1ccc(OP(=O)(O)O)cc1)N[*:1])[*:2]].L.K.N.N.I.L.S.D}$$$$V2.0),Kd,SH2 and PTB domains [1]; [8],280 nM
same,Kd,"SH2 and PTB domains [1]; PM assay replicate # 39352, array fabrication # 39336",910 nM
same,Kd,SH2 and PTB domains [4]; [8],70 nM
same,Kd,"SH2 and PTB domains [5]; protein PTPN6-C, PM assay replicate # 39307, array fabrication # 39286",716010 nM
same,Kd,SH2 and PTB domains [3]; [8],1190 nM
same,Kd,SH2 and PTB domains [6]; [8],250 nM
CC(C)C[C@H](NC(=O)[C@@H]1CCCN1C(=O)[C@H](C)NC(=O)[C@@H](NC(=O)[C@H](Cc1ccc(OP(=O)(O)O)cc1)NC(=O)CNC(=O)[C@H](CC(=O)O)NC(=O)[C@@H](NC(=O)[C@@H](N)CCC(=O)O)[C@@H](C)O)C(C)C)C(=O)N[C@H](C(=O)N[C@@H](CS)C(=O)N[C@@H](CO)C(=O)N[C@@H](CC(=O)O)C(=O)O)[C@@H](C)O [ErbB2 pY1127],Kd,SH2 and PTB domains [4]; [10],4360 nM
same,Kd,SH2 and PTB domains [4]; [9],250 nM
same,Kd,"SH2 and PTB domains [5]; protein PTPN6-NC, PM assay replicate # 39336, array fabrication # 39329",1620 nM
same,Kd,"SH2 and PTB domains [5]; protein PTPN6-NC, PM assay replicate # 39337, array fabrication # 39329",1620 nM
same,Kd,SH2 and PTB domains [2]; [10],1590 nM
same,Kd,SH2 and PTB domains [2]; [9],170 nM
same,Kd,SH2 and PTB domains [6]; [10],300 nM
same,Kd,SH2 and PTB domains [6]; [9],530 nM
same,Kd,SH2 and PTB domains [7]; [10],1600 nM
same,Kd,SH2 and PTB domains [7]; [9],40 nM
same,Kd,"SH2 and PTB domains [7]; PM assay replicate # 39603, array fabrication # 39392",250 nM
CC(C)C[C@H](NC(=O)[C@@H]1CCCN1)C(=O)N[C@@H](CCC(N)=O)C(=O)N[C@@H](CCCNC(=N)N)C(=O)N[C@@H](Cc1ccc(OP(=O)(O)O)cc1)C(=O)N[C@@H](CO)C(=O)N[C@@H](CCC(=O)O)C(=O)N[C@@H](CC(=O)O)C(=O)N1CCC[C@H]1C(=O)N[C@H](C(=O)N[C@H](C(=O)N1CCC[C@H]1C(=O)N[C@@H](CC(=O)O)C(=O)O)C(C)C)[C@@H](C)O [ErbB2 pY1112] (HELM PEPTIDE1{P.L.Q.R.[O=C([C@H](Cc1ccc(OP(=O)(O)O)cc1)N[*:1])[*:2]].S.E.D.P.T.V.P.D}$$$$V2.0),Kd,"SH2 and PTB domains [7]; PM assay replicate # 39331, array fabrication # 39329",26530 nM
same,Kd,SH2 and PTB domains [7]; [10],5070 nM

# Reference: PMC3433420 (PLoS ONE, 2012)
